Measurements: ChEMBL document CHEMBL6092203, “Discovery of Novel PROTAC-Based HPK1 Degraders with High Potency and Selectivity for Cancer Immunotherapy” (J Med Chem, 2024)
Active and inactive are the calls of the source. No cut-off for these calls is given here.

Tests used:
[1] = Apparent volume of distribution in mouse at 2 mg/kg, iv measured upto 24 hrs by LC-MS analysis; assay type: ADME, organism-based; conditions: in vivo
Jurkat [2] = assay: Effect on SLP76 total protein expression in human Jurkat cells at 1 to 2000 nM incubated for 24 hrs by Western blotting assay; assay type: functional, cell-based; conditions: dose 1-2000 nM
[3] = target: Protein cereblon/Mitogen-activated protein kinase kinase kinase kinase 1 (Homo sapiens, UniProt Q92918+Q96SW2); assay: PROTAC activity at CRBN/HPK1 in human Jurkat cells assessed as HPK1 degradation at 0.01 uM pretreated with MG132 for 4 hrs followed by compound addition and measured after 24 hrs by Western blotting analysis; assay type: cell-based
[4] = Induction of INFgamma secretion in human T-cells incubated for 48 hrs by ELISA; assay type: functional, cell-based; conditions: T-cell
Jurkat [5] = assay: Induction of GCK degradation in human Jurkat cells at 1 to 1000 nM incubated for 24 hrs by Western blotting analysis; assay type: cell-based; conditions: dose 1-1000 nM
[6] = Apparent permeability across apical to basolateral side in human Caco-2 cells at 10 uM incubated for 2 hrs by LC-MS/MS analysis; assay type: ADME, cell-based
Cytochrome P450 1A2 = target: T1, Cytochrome P450 1A2 (Homo sapiens, UniProt P05177); assay: Inhibition of CYP1A2 in human liver microsomes using phenacetin as substrate in presence of NADPH; assay type: ADME, Microsome
T1 sequence (P05177 whole entry): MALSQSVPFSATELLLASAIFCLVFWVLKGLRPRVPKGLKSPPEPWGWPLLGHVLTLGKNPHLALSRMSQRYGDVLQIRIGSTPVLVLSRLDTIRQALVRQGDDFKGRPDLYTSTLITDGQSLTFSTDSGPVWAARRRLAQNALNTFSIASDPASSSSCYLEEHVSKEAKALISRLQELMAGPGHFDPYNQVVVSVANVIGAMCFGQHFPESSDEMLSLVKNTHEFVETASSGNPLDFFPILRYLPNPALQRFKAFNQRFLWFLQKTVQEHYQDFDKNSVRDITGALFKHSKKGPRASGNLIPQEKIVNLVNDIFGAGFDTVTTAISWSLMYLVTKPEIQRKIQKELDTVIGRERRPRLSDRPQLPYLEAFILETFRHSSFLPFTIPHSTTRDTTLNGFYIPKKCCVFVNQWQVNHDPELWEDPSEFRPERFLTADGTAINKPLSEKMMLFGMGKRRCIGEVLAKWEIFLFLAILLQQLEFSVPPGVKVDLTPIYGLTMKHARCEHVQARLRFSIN

[7] = Metabolic stability in human liver microsomes assessed as intrinsic clearance at 1 uM incubated for 45 mins by LC-MS/MS method; assay type: ADME, Microsome; conditions: read-out: CLH
[8] = Metabolic stability in dog hepatocytes assessed as intrinsic clearance at 1 uM incubated for 90 mins by LC-MS/MS method; assay type: ADME, cell-based, Canis lupus familiaris, Hepatocyte; conditions: 1.5 h
[9] = Tmax in C57BL/6J mouse at 10 mg/kg, po measured upto 24 hrs by LC-MS analysis; assay type: ADME, organism-based; conditions: in vivo
[10] = Tmax in Sprague-Dawley rat at 1 mg/kg, po measured upto 24 hrs by LC-MS analysis; assay type: ADME, organism-based; conditions: in vivo
[11] = Half-life in Sprague-Dawley rat at 1 mg/kg, po measured upto 24 hrs by LC-MS analysis; conditions: in vivo
[12] = AUCinfinity in Beagle dog at 1 mg/kg, iv measured upto 24 hrs by LC-MS analysis; assay type: ADME, organism-based, Canis lupus familiaris; conditions: in vivo
[13] = Half-life in Beagle dog at 5 mg/kg, po measured upto 24 hrs by LC-MS analysis; conditions: in vivo
[14] = AUCinfinity in Beagle dog at 5 mg/kg, po measured upto 24 hrs by LC-MS analysis; assay type: ADME, organism-based, Canis lupus familiaris; conditions: in vivo
[15] = Drug metabolism in rat hepatocytes assessed as phase 2 metabolites formation at 10 uM incubated for 120 mins by UHPLC-UV/MS/MS method; assay type: ADME, cell-based, Hepatocyte; conditions: 2 h
hERG (KCNH2) = hERG (KCNH2) (Homo sapiens, UniProt Q12809); assay: Inhibition of human ERG at 3 uM by patch clamp method relative to control; assay type: toxicity
[16] = Clearance in rat relative to hepatic blood flow; conditions: in vivo
[17] = Drug distribution in rat heart measured after 0.5 to 6 hrs; assay type: ADME, tissue-based; conditions: in vivo, time 0.5-6 hrs
[18] = Drug distribution in rat lymph node measured after 0.5 to 6 hrs; assay type: ADME, tissue-based; conditions: in vivo, time 0.5-6 hrs
[19] = Toxicity in C57BL/6J mouse assessed as body weight loss at 0.02 to 0.5 mg/kg, po qd administered for 3 to 4 weeks; assay type: organism-based; conditions: in vivo, dose lower 0.02 mg/kg, time lower 3 weeks, dose upper 0.5 mg/kg, time upper 4 weeks
MC-38 [20] = assay: Synergistic antitumor activity against mouse MC38 cells implanted in C57BL/6J mouse assessed as reduction in tumor volume at 0.5 mg/kg, po bid administered for 3 to 4 weeks in presence of 5 mg/kg anti-PD1 and measured twice a week (reference value: 1549.22 +/- 217.92 mm3); assay type: functional; conditions: time 3-4 weeks
MC-38 [21] = assay: Synergistic antitumor activity against mouse MC38 cells implanted in C57BL/6J mouse assessed as reduction in tumor weight at 1 mg/kg, po bid administered for 3 to 4 weeks in presence of 5 mg/kg anti-PD1 and measured twice a week (reference value: 1.79 +/- 0.24 g); assay type: functional; conditions: time 3-4 weeks
MC-38 [22] = assay: Antitumor activity against mouse MC38 cells implanted in C57BL/6J mouse assessed as tumor weight inhibition rate at 1 mg/kg, po BID measured after 4 weeks; assay type: functional; design: scale not given: the % may be the effect or the level left
MC-38 [23] = assay: Synergistic antitumor activity against mouse MC38 cells implanted in C57BL/6J mouse assessed as tumor weight inhibition rate at 1 mg/kg, po bid measured after 4 weeks in presence of 5 mg/kg anti-PD1 and measured twice a week; assay type: functional; design: scale not given: the % may be the effect or the level left
[24] = Tmax in male Sprague-Dawley rat at 30 mg/kg/day, po measured at day 1; assay type: ADME, organism-based; conditions: in vivo, time 1 day
[25] = Tmax in female Sprague-Dawley rat at 100 mg/kg/day, po measured at day 14; assay type: ADME, organism-based; conditions: in vivo, time 14 day
[26] = AUC(0 to 24 hrs) in female Sprague-Dawley rat at 30 mg/kg/day, po measured at day 1; assay type: ADME, organism-based; conditions: in vivo, time 1 day
[27] = AUC(0 to 24 hrs) in male Sprague-Dawley rat at 100 mg/kg/day, po measured at day 1; assay type: ADME, organism-based; conditions: in vivo, time 1 day
[28] = Toxicity in Sprague-Dawley rat assessed as no observable adverse effect level measured after 14 days; conditions: in vivo, time 14 day
[29] = Toxicity in C57BL/6J mouse assessed as change in body weight at 0.1 to 1 mg/kg, po bid measured after 28 days; assay type: organism-based; conditions: in vivo, 672 h, dose 0.1-1 mg/kg, time 28 day
in vivo [30] = conditions: female, Sprague-Dawley, rat, po, 30 mg/kg
in vivo [31] = conditions: male, Sprague-Dawley, rat, po, 30 mg/kg
in vitro [32] = conditions: rat, liver microsomes
in vitro [33] = conditions: rat, hepatocytes
in vitro [34] = conditions: rhesus monkey, hepatocytes

Protein cereblon/Mitogen-activated protein kinase kinase kinase kinase 1, sequence (Q92918 whole entry, looked up): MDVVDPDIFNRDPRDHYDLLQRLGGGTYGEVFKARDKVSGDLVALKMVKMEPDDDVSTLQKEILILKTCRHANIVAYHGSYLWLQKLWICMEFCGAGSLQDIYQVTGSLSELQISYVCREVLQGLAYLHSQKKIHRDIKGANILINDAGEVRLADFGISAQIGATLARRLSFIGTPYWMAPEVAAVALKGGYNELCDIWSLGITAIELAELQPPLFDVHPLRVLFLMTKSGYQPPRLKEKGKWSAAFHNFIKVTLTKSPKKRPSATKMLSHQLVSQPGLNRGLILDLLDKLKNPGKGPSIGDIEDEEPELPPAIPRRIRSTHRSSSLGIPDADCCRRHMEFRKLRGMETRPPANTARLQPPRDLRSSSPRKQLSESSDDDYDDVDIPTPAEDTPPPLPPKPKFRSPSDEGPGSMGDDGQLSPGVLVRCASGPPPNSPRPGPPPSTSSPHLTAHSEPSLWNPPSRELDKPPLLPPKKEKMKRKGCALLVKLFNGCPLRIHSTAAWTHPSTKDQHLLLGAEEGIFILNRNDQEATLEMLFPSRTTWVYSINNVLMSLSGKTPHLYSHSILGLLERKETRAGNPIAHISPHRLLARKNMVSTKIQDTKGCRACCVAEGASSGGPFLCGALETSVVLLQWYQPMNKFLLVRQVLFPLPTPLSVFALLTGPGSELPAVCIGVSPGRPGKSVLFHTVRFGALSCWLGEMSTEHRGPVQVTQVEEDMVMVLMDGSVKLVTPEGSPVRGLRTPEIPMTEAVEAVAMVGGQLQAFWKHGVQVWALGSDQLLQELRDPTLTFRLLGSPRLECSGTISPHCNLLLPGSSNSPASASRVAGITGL
Protein cereblon/Mitogen-activated protein kinase kinase kinase kinase 1, sequence (Q96SW2 whole entry, looked up): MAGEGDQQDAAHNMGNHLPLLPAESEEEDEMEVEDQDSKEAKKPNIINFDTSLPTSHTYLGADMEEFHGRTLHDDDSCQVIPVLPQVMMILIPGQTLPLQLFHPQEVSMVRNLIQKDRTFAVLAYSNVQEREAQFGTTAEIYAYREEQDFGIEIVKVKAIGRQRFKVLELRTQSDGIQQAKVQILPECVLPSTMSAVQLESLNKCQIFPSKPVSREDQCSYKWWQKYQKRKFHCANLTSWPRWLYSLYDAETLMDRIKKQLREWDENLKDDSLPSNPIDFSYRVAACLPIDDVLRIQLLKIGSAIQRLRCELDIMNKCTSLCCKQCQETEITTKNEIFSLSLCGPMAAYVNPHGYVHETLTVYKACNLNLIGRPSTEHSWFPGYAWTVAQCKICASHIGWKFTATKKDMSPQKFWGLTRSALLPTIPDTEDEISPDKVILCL
hERG (KCNH2), sequence (Q12809 whole entry): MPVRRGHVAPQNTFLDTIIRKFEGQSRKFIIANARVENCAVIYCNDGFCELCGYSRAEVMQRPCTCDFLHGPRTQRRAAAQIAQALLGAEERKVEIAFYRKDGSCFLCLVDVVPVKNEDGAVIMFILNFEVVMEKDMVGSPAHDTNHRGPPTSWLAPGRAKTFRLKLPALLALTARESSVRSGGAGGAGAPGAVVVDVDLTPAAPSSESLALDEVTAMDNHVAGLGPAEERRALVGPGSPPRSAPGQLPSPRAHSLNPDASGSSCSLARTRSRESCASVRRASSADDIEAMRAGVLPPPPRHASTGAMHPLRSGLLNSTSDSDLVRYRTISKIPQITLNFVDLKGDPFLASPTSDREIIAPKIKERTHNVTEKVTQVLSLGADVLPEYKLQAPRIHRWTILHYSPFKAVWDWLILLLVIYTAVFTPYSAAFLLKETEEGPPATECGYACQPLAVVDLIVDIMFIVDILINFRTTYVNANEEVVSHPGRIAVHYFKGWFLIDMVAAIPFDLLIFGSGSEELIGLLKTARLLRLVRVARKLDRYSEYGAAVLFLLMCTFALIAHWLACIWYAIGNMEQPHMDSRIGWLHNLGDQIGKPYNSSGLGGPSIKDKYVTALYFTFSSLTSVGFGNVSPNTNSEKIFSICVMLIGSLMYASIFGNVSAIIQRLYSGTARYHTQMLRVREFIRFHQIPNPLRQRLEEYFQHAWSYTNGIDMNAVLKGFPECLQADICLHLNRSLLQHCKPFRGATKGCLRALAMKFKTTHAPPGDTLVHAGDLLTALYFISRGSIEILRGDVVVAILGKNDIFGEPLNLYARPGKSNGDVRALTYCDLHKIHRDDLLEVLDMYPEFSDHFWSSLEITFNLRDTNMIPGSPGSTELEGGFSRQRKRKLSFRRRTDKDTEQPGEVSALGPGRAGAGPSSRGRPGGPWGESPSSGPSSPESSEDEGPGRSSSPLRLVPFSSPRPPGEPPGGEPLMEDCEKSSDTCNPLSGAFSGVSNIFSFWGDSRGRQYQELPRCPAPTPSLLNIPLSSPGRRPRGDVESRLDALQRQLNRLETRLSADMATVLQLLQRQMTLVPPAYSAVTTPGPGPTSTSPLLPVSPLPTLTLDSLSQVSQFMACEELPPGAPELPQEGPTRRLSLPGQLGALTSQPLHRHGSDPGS

- Vz [1]: 0.121 L/kg
- Activity [3]: inactive
- EC50 [4]: 32.6 nM
- Papp A→B at 2 h, 10 µM [6]: 0.16 ×10⁻⁶ cm/s
- IC50 (Cytochrome P450 1A2): > 10000 nM
- microsomal CLint at 1 µM [7]: 3.48 µL/min/mg
- CLH [8]: 3.33 µL/min/mg
- Tmax [9]: 1 h
- Tmax [10]: 3.17 h
- half-life at 24 h [11]: 5.15 h
- AUC(0-inf) [12]: 996 ng·h/mL
- half-life at 24 h [13]: 4.23 h
- AUC(0-inf) [14]: 796 ng·h/mL
- Drug metabolism [15]: metabolite_detected
- clearance [16]: 16.6 mL/min/kg
- Drug uptake [17]: Active
- Drug uptake [18]: Active
- Tmax [24]: 8 h
- Tmax [25]: 8.67 h
- AUC(0-t) at 24 h [26]: 51300 ng·h/mL
- AUC(0-t) at 24 h [27]: 107000 ng·h/mL
- Cmax at 24 h (in vivo [30]): 4900 ng/mL
- AUC at 336 h (in vivo [31]): 38200 ng·h/mL
- half-life at 0.75 h, 1 µM (in vitro [32]): 4.12 h
- half-life at 1.5 h, 1 µM (in vitro [33]): 3.9 h
- half-life at 1.5 h, 1 µM (in vitro [34]): 1.3 h
Structure (SMILES): O=C1CCN(c2cc(C(=O)N3CCC(CC4CCN(c5ccc(-c6cnc7[nH]cc(-c8cnn(CC(F)(F)F)c8)c7n6)cn5)CC4)CC3)ccc2Cl)C(=O)N1
- Activity (Jurkat [2]): inactive
- Activity (Jurkat [5]): inactive
- inhibition at 3 µM (hERG (KCNH2)): 4.36%
- Activity [19]: Non-toxic
- Activity (MC-38 [20]): 139.36 mm3
- Activity (MC-38 [21]): 0.47 g
- Activity (MC-38 [22]): 12.77%
- Activity (MC-38 [23]): 76.61%
- NOAEL at 336 h [28]: 100 mg/kg/day
- Activity [29]: Non-toxic
